Measurements as given in patent publication US20240317762A1, “PHTHALAZINONE-BASED PARP-1 INHIBITORS” (Oregon Health & Science University, priority 2021, published 2024).

Experiments:
[1] = system: HEK 293T cells; test: cell proliferation (MTT) assay; assay type: cell-based, human; conditions: MTT, 72 h
Protocol: HEK 293T or HEK 293 PARP-1 KO cells were seeded in a 96 well plate at 1000-2000 cells per well. Following an overnight incubation, MTT reagent, 3-(4,5-dimethylthiazol-2-yl)-2,5-diphenyltetrazolium bromide, or a dosage curve of indicated inhibitor was added to each well in quadruplicate. Following a 3-hour incubation at 37° C., wells containing MTT reagent, were aspirated and lysed with 100 μl DMSO. These wells acting as a no growth control were collected, saved @ −20° C., and replaced with 100 μl water. The plate was placed back into the incubator for a total of 72 hours of inhibitor treatment prior to MTT reagent being added for a final time. Following a 3 hour incubation with the reagent, wells were aspirated, and 100 μl DMSO were added to each well, while the no growth control sample was added back to the plate. Absorbance was read on a SpectraMaxi3 plate reader (Molecular Devices). Percent growth was calculated for analysis. Statistical significance was assigned using individual t-tests between conditions for each inhibitor dosage.
Error bars represent SEM. […] Error bars represent SEM. […] Error bars represent SEM.

[2] = biological target: T1, PARP-1 (Homo sapiens, UniProt P09874); test: PARP-1 auto-PARylation activity assay in cells; assay type: cell-based
T1 sequence (P09874 whole entry): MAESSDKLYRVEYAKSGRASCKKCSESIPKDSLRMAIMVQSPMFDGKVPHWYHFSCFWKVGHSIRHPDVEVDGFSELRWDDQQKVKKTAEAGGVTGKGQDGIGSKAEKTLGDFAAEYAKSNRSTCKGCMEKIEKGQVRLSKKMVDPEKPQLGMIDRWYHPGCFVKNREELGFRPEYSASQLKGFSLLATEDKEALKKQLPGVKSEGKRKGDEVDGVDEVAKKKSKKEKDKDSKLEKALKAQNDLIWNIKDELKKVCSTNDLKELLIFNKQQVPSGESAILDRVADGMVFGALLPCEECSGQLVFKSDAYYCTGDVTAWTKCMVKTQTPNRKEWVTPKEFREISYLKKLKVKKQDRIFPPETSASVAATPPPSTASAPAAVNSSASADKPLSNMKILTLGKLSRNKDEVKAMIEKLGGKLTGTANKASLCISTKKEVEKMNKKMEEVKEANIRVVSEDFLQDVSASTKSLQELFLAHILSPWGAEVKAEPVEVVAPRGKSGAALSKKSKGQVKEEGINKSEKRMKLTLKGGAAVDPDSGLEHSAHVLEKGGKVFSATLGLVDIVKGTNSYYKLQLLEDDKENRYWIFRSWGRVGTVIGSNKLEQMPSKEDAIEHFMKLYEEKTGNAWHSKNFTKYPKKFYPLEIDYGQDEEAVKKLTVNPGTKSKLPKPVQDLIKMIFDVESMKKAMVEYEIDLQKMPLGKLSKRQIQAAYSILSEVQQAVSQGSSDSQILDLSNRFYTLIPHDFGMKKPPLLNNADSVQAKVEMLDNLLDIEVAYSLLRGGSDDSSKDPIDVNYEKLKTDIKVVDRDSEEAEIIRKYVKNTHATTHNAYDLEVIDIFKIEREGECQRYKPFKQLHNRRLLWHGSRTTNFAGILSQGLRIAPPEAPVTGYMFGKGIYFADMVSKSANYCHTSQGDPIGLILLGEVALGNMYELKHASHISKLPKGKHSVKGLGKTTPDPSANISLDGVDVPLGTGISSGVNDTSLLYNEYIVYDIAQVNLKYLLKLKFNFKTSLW
Protocol: Cells were washed with PBS, and lysed in RIPA buffer (50 mM Tris-HCl [pH 8.0], 150 mM NaCl, 0.1% SDS, 1% Triton X-100, 1× cOmplete™ protease inhibitors (Roche), and 1 μM Veliparib). […] Following quantification, 4× Laemmli sample buffer with 5% β-mercaptoethanol was added to 25-50 μg of protein.
Membrane blots were blocked with 5% milk-PBST for 1 h at RT, followed by incubation with a rabbit pan-ADP-ribose binding reagent (Cell Signaling), a rabbit PARP-1 antibody (Bethyl Laboratories), or a mouse b-actin antibody (Santa Cruz Biotechnology) for 2 h at RT, followed by incubation with HRP-conjugated secondary antibodies. […] Blots were imaged for chemiluminescent signal on a ChemiDoc MP system (BioRad). Statistical significance was established through multiple unpaired t-tests with nonlinear regression fit analysis.
FIGS. 5A-5F. […] An unlabeled competitor was added and the decrease in fluorescence polarization was measured across time. […] Error bars represent SEM. […] Error bars represent SEM. […] Cells were subsequently lysed using RIPA buffer, run out on SDS-PAGE, and probed for ADPr (Cell Signaling) and PARP-1 (Bethyl Laboratories). FIG. 5F) Quantification of western blot images. ADPr values are normalized to PARP-1 within each replicate and plotted as percentage compared to DMSO. Error bars indicate SEM (n=3).

[3] = biological target: T1, PARP-1; test: PARP-1 PARylation after washout (off-rate analysis); assay type: cell-based; conditions: 300 nM, 30 minutes, no washout; read-out: inhibition of PARP-1-mediated PARylation activity prior to washout
Protocol: For off-rate analysis, after 30 minute pre-treatment with indicated inhibitors, cells were washed once before incubating for 0, 3, 6, or 12 hours in fresh media. Following release times, cells were incubated with PDD 00017273 (10 μM) for 30 minutes before proceeding using the same western blot protocol detailed above. Statistical significance was established through multiple unpaired t-tests with nonlinear regression fit analysis.
FIGS. 6A-6E. […] 0.1 μM ad-olaparib (chemical structure indicated in panel a) was added to the cells for 1 hour before undergoing a UV treatment for 5 minutes in cold PBS. Cells were lysed and sonicated in PBS (1% Triton X-100+1% SDS), clicked with TAMRA-azide and run out on SDS-PAGE. The gel was imaged for TAMRA and probed for PARP-1 (Bethyl Laboratories), and alpha-tubulin (X). FIGS. 6B, 6D) Quantification of western blot images. TAMRA or ADPr values are normalized to PARP-1 within each replicate and plotted as percentage compared to DMSO. Error bars indicate SEM (n=3-4). Statistical significance of off-rate calculated via multiple t-tests (p<0.05). […] Cells were subsequently treated with PARGi (10 μM) for 30 minutes, lysed using RIPA buffer, run out on SDS-PAGE, and probed for ADPr (Cell Signaling) and PARP-1 (Bethyl Laboratories). […] IC50 values were calculated using R statistical software.

[4] = biological target: T1, PARP-1; test: in-cell competition labeling with ad-olaparib photoaffinity probe; assay type: cell-based
Protocol: Photocrosslinking in intact cells. HEK293 CRL and PARP-1 KO cells were grown in DMEM for 2 days in a 60 mm dish for 2 days to reach 80-90% confluency. […] Cells were then washed once with PBS, covered with PBS and irradiated for 5 min in the RPR-100 Photochemical Reactor (Rayonet) equipped with 350 nm lamps at 4° C. Cells were lysed on ice in 1% SDS, 1% Triton X-100 and EDTA-free protease inhibitor cocktail (Roche) in PBS for 10 min and then probe sonicated to shear the nuclear DNA. Protein concentration was determined with Bio-Rad Protein assay. The lysate was diluted in PBS to a final Click reaction concentration of 2 mg/mL.
Click Chemistry. Reaction was started by mixing 30 μL of each sample with 15 μL of PBS based 3× Click reaction mixture containing (final concentrations): 100 μM Tris[(1-benzyl-1H-1,2,3triazol-4-yl)methyl]amine (TBTA, Click Chemistry Tools), 1 mM CuSO4, 40 μM tetramethylrhodamine (TAMRA)-azide (Click Chemistry Tools), 1 mM Tris(2-carboxyethyl)phosphine hydrochloride (TCEP, Thermo Fisher) and 15% tert-Butyl alcohol, and let to procced for 1 h at RT while gently shaking. Reactions were stopped by adding 4× Laemmli sample buffer and boiling at 95° C. for 5 min.
In gel fluorescence, western blotting and quantification. Samples were loaded to 8 or 10% SDS-polyacrylamide gels and run until the dye front left the gel. First, in-gel fluorescence was detected with ChemiDoc XRS+ (Biorad) using Rhodamine filter and then the proteins were transferred on nitrocellulose membrane, the membrane was blocked and probed for PARP-1 (1:3000) and alpha-tubulin (1:1000). Both antibodies were from cell signaling. Band intensities we quantified with ImageJ.
(§1) FIGS. 6A-6E. […] 0.1 μM ad-olaparib (chemical structure indicated in panel a) was added to the cells for 1 hour before undergoing a UV treatment for 5 minutes in cold PBS. Cells were lysed and sonicated in PBS (1% Triton X-100+1% SDS), clicked with TAMRA-azide and run out on SDS-PAGE. The gel was imaged for TAMRA and probed for PARP-1 (Bethyl Laboratories), and alpha-tubulin (X). FIGS. 6B, 6D) Quantification of western blot images. TAMRA or ADPr values are normalized to PARP-1 within each replicate and plotted as percentage compared to DMSO. Error bars indicate SEM (n=3-4). Statistical significance of off-rate calculated via multiple t-tests (p<0.05). […] Cells were subsequently treated with PARGi (10 μM) for 30 minutes, lysed using RIPA buffer, run out on SDS-PAGE, and probed for ADPr (Cell Signaling) and PARP-1 (Bethyl Laboratories). FIG. 6E) ES-8 cells were treated with indicated concentration of inhibitors for 72 hours before measuring cell viability using the CellTiter-Glo kit (Promega G7573). IC50 values were calculated using R statistical software.

[5] = system: Ewing sarcoma cell line EW-8; test: ES-8 viability screen (CellTiter-Glo); assay type: cell-based
Protocol: Cell viability was measured using the CellTiter-Glo (Promega, G7573) assay and read using an Envision (PerkinElmer) plate reader. Compound source plates (96-well) were prepared by solubilizing each drug in DMSO to a maximum concentration of 1-50 mM, then arraying samples in 10-point dose-response with 3-fold dilution. Positive and negative controls (staurosporine at 10 mM and DMSO, respectively) were added to the source plates. Drug was transferred from the source plate to the assay plate using a Biomek FX (Beckman Coulter) liquid handler equipped with a pin tool which transferred ˜100 nl into a final volume of 100 μl, resulting in ˜1000-fold dilution. At least two biological replicates (assay performed on different day with same drug plate and independent cell preparation) were obtained for each drug. To analyze the assay, the relative light unit signal in each well was first log 2 transformed, then normalized by subtracting the mean of the negative controls wells on each plate.
as §1

[6] = biological target: T1, PARP-1; test: fluorescence polarization DNA binding affinity assay; conditions: 5 μM inhibitor; compared to DMSO control
Text: The full-length WT PARP-1 protein used in these assays was purified as described previously (30).

[7] = biological target: T1, PARP-1; test: in vitro PARP-1 auto-PARylation assay (SRPK2 plate assay); assay type: biochemical; parameters: The full-length WT PARP-1 protein used in these assays; made in house
Protocol: IC50 SRPK2 Plate Assays were performed as previously described (21). Log(inhibitor) versus response curves were fit using non-linear regression with variable slope. Mean IC50 values for each compound were derived from a minimum of three separate replicates.

## C[C@H]1Cn2c(nnc2C(C)(F)F)CN1C(=O)c1cc(Cc2n[nH]c(=O)c3ccccc23)ccc1F [Pip6, (S)-4-(3-(3-(1,1-difluoroethyl)-6-methyl-5,6,7,8-tetrahydro-[1,2,4]triazolo[4,3-a]pyrazine-7-carbonyl)-4-fluorobenzyl)phthalazin-1(2H)-one]
[1]; Homo sapiens, HEK-293T, read-out: EC50 cell growth
  EC50: 0.94 nM
[1]
  potency in inhibiting cell growth compared with AZ0108: substantially more potent than AZ0108
[2]
  fold more potent than AZ0108 in inhibiting PARP-1 PARylation in HEK 293 cells: ~20 fold
[2]; 30 min inhibitor, then PARG inhibitor PDD00017273, read-out: EC50 inhibiting PARP-1 PARylation in HEK 293 cells
  EC50: 2.3 nM
[2]; FIG. 5F, nonlinear regression, read-out: IC50 of dose curves, quantification of western blot (ADPr normalized to PARP-1)
  IC50: 2.26 nM
[3]
  inhibition at 0.3 µM: > 90%
[4]; 10 μM inhibitor, 0.1 μM ad-olaparib
  labeling of PARP-1 by ad-olaparib after pre-treatment: substantially blocked
[4]; in cells and in vitro
  residence time on PARP-1 compared to AZ0108: longer residence time
[4]; washout (3 h)
  recovery of labeling of PARP-1 by ad-olaparib after washout: not recovered
[5]
  fold more cytotoxic than AZ0108 in Ewing sarcoma cells: ~80 fold
[5]; ratio of EC50 values
  Fold Difference to Pip6: 1
[5]; viability, 72 h
  EC50: 0.24 nM
  EC50 (nM): sub-nanomolar
[6]
  effect on the affinity of PARP-1 for nicked DNA: more pronounced effect on DNA binding than Pip5
[7]
  potency against PARP-1 auto-PARylation compared with AZ0108: equipotent
